We go through two molecules from patent US11590158B2, “Pharmaceutical compositions of lipoic acid choline ester salts and methods of treatment using same” (Novartis AG, priority 2020, dated 2023).

The subject of series [1] is Staphylococcus aureus, Pseudomonas aeruginosa, Escherichia coli, Candida albicans, and Aspergillus brasiliensis. Put plainly: Preservative efficacy test, overall outcome against USP criteria. Type of series: cell-based. Conditions: formulations with cyclodextrin. The protocol: The testing was carried out using the following procedure: Five different challenge organisms were evaluated (Staphylococcus aureus, Pseudomonas aeruginosa, Escherichia coli, Candida albicans, and Aspergillus brasiliensis) were evaluated for each test formulation, and inoculated to a concentration of 10^6 colony forming units per ml (CFU/ml). The microbial suspension was incubated and sampled at 7, 14, 21, and 28 days. At the time of sampling, a sample was diluted 10-fold into tryptase soy broth medium, and 100 μl plated in growth agar plates to count survivors. The survivor count was used to determine log reduction. The preservative efficacy test criteria for multidose pharmaceutical compositions under US Pharmacopoeia standards are as follows. [table]

The test system of the next series is rabbit eye. The experiment in a line: Acute rabbit ocular tolerability study. Type of series: in vivo. To be noted: rabbit left eye dosed 6 times, one drop about 30 microliter, about 1 hour apart. The procedure:
A number of excipients were explored to determine which excipients would reduce the formation of associative species. Acute rabbit ocular tolerability studies were performed to test the ocular tolerability of LACE tosylate with various excipients. The study design involved three male rabbits per arm. The rabbits' left eye was dosed 6 times with one drop each time, about 1 hour apart, administering about 30 microliter per drop. The right eye was not dosed and served as a control.

`N=C(N)NC(=N)N` [Biguanide]: the “efficacy as a preservative in LACE tosylate formulations” value in series [1] is reported as “not found to be efficacious”.

In the case of `CC(O)CO` (centres unmarked) [Propylene Glycol], in the series with rabbit eye, the Tolerated entry is recorded as “No”.
